Results on 27 compounds are retold here after patent publication US11098029B2, “5-alkyl pyrrolidine orexin receptor agonists” (Merck Sharp & Dohme Corp., priority 2019, dated 2021).

The Emax is the size of the effect at its maximum, as opposed to the concentration needed. What is called IC50 is the concentration needed to halve the response being measured.

The target in this assay is human OX2R (Homo sapiens (Human), UniProt O43614). Put plainly: IPOne (IP-One, Cisbio) orexin receptor agonist assay in CHO cells expressing human OX2R. The note with it: for Emax: CHO; for Emax / Emax (%): hOX2R_IP, percentage of mean max effect of a reference compound at 1 uM (100% activity vs Orexin A).
Sequence of human OX2R (O43614 whole entry): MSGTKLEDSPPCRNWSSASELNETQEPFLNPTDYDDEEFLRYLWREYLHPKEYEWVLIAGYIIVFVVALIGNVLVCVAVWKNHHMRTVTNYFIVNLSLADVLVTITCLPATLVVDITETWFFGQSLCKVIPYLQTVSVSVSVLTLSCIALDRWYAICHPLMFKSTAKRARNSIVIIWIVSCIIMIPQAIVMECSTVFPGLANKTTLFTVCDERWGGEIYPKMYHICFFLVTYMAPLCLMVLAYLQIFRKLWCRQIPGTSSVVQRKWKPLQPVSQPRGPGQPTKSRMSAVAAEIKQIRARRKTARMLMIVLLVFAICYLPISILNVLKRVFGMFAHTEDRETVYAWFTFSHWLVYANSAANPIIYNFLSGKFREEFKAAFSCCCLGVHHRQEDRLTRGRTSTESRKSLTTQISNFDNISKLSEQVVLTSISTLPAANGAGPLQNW

Procedure: Both the OX1R and/or OX2R G-coupled protein receptors (GPCRs) couple through the Gaq signaling pathway, which ultimately promotes calcium mobilization via inositol triphosphate (IP3) production.
In a typical experiment, the OX1 and OX2 receptor agonist activity is determined in accordance with the following general experimental method. Chinese hamster ovary (CHO) cells expressing human OX1R and/or the human OX2R were grown in Iscove's modified DMEM containing glutaMAX®, 1% G418, 100 U/mL penicillin, 100 μg/mL streptomycin and 10% heat-inactivated qualified fetal bovine serum (FBS). […] During this incubation, IP-one detection reagents were prepared (38:1:1 lysis buffer:D2:AB-cryptate reagents).
For each compound, data were fit to a four parameter logistic fit (ActivityBase software) and the EC50 was reported as the inflection point of the resulting curve.

The compound `CC[C@@H]1C[C@H](NS(C)(=O)=O)[C@H](CO[C@H]2CC[C@@H](c3ccccc3)CC2)N1C(=O)OC` (racemic) [Example 43, methyl (2R,3S,5R)-5-ethyl-3-(methylsulfonamido)-2-((((CIS)-4-phenylcyclohexyl)oxy)methyl)-pyrrolidine-1-carboxylate] returned an Emax of 103%.

On to `COC(=O)N1[C@@H](CO[C@H]2CC[C@@H](c3ccccc3)CC2)[C@@H](NS(C)(=O)=O)CC12CC2` (relative stereo) [Example 41, methyl (CIS)-6-(methylsulfonamido)-5-((((CIS)-4-phenylcyclohexyl)oxy)methyl)-4-azaspiro[2.4]heptane-4-carboxylate], for which the IC50 amounted to 224 nM and the Emax was 99%.

On to `CCC1(CC)C[C@@H](NS(C)(=O)=O)[C@@H](CO[C@H]2CC[C@@H](c3ccccc3)CC2)N1C(=O)OC` (relative stereo) [Example 42, methyl (CIS)-2,2-diethyl-4-(methylsulfonamido)-5-((((CIS)-4-phenylcyclohexyl)oxy)methyl)-pyrrolidine-1-carboxylate], for which the IC50 was determined as 316 nM and the Emax came out at 100%. With `C=C[C@@H]1C[C@H](NS(C)(=O)=O)[C@H](CO[C@H]2CC[C@@H](c3ccccc3)CC2)N1C(=O)OC` (relative stereo) [Example 48, methyl (CIS)-3-(methylsulfonamido)-2-((((CIS)-4-phenylcyclohexyl)oxy)methyl)-5-vinylpyrrolidine-1-carboxylate], the “Emax (%)” value was found to be 102%.

For `CCNC(=O)N1[C@H](C)C[C@H](NS(C)(=O)=O)[C@@H]1COC1CCC(C(C)C)CC1` (stereo partly drawn) [Example 1, (2R,3S,5R)—N-ethyl-2-(((4-isopropylcyclohexyl)oxy)methyl)-5-methyl-3-(methylsulfonamido)-pyrrolidine-1-carboxamide], the IC50 was determined as 15.2 nM and the Emax stood at 101%. The compound `CCNC(=O)N1[C@H](C)C[C@H](NS(C)(=O)=O)[C@@H]1COC1CCC(C(F)(F)F)CC1` (stereo partly drawn) [Example 2, (2R,3S,5R)—N-ethyl-5-methyl-3-(methylsulfonamido)-2-(((4-(trifluoromethyl)-cyclohexyl)oxy)methyl)pyrrolidine-1-carboxamide] displayed an Emax of 100%. In turn, `COC(=O)N1[C@H](C)C[C@H](NS(C)(=O)=O)[C@@H]1COC1CCC(C(C)C)CC1` (stereo partly drawn) [Example 3, methyl (2R,3S,5R)-2-(((4-isopropylcyclohexyl)oxy)methyl)-5-methyl-3-(methylsulfonamido)pyrrolidine-1-carboxylate] displayed an Emax of 98%. Turning to `COC(=O)N1[C@H](C)C[C@H](NS(C)(=O)=O)[C@@H]1CO[C@H]1CC[C@@H](C(C)C)CC1` [Example 4, methyl (2R,3S,5R)-2-((((1s,4S)-4-isopropylcyclohexyl)oxy)methyl)-5-methyl-3-(methylsulfonamido)pyrrolidine-1-carboxylate], the “Emax (%)” value was determined as 102%. For the compound `CC(C)OC(=O)N1[C@H](C)C[C@H](NS(C)(=O)=O)[C@@H]1COC1CCC(C(C)C)CC1` (stereo partly drawn) [Example 5, isopropyl (2R,3S,5R)-2-(((4-isopropylcyclohexyl)oxy)meth-yl)-5-methyl-3-(methylsulfonamido)pyrrolidine-1-carboxylate], the Emax came out at 101%. `CNS(=O)(=O)N[C@H]1C[C@@H](C)N(C(=O)OC(C)C)[C@H]1COC1CCC(C(C)C)CC1` (stereo partly drawn) [Example 6, isopropyl (2R,3S,5R)-2-(((4-isopropylcyclohexyl)oxy)meth-yl)-5-methyl-3-((N-methylsulfamoyl)amino) pyrrolidine-1-carboxylate]: the “Emax (%)” value was 100%. The compound `CCOC(=O)N1[C@H](C)C[C@H](NS(C)(=O)=O)[C@@H]1COC1CCC(C(C)C)CC1` (stereo partly drawn) [Example 7, ethyl (2R,3S,5R)-2-(((4-isopropylcyclohexyl)oxy)meth-yl)-5-methyl-3-(methylsulfonamido)pyrrolidine-1-carboxylate] had an IC50 of 45.5 nM and an Emax of 100%.

As to `CCOC(=O)N1[C@H](C)C[C@H](NS(=O)(=O)N(C)C)[C@@H]1COC1CCC(C(C)C)CC1` (stereo partly drawn) [Example 8, ethyl (2R,3S,5R)-3-((N,N-dimethylsulfamoyl)amino)-2-(((4-isopropylcyclohexyl)oxy)meth-yl)-5-methylpyrrolidine-1-carboxylate], the Emax was found to be 101%. Same read-out and setting: to `CC(C)C1CCC(OC[C@H]2[C@@H](NS(C)(=O)=O)C[C@@H](C)N2C(=O)OCC(F)F)CC1` (stereo partly drawn) [Example 9, 2,2-difluoroethyl (2R,3S,5R)-2-(((4-isopropylcyclohexyl)oxy)meth-yl)-5-methyl-3-(methylsulfonamido)pyrrolidine-1-carboxylate] belongs 101%; to `CC(C)C1CCC(OC[C@H]2[C@@H](NS(C)(=O)=O)C[C@@H](C)N2C(=O)OCCF)CC1` (stereo partly drawn) [Example 10, 2-fluoroethyl (2R,3S,5R)-2-(((4-isopropylcyclohexyl)oxy)meth-yl)-5-methyl-3-(methylsulfonamido)pyrrolidine-1-carboxylate], 99%. On the same count and under the same terms, under `COC(=O)N1[C@H](C)C[C@H](NS(=O)(=O)N(C)C)[C@@H]1COC1CCC(C(F)(F)F)CC1` (stereo partly drawn) [Example 11, methyl (2R,3S,5R)-3-((N,N-dimethylsulfamoyl)amino)-5-methyl-2-(((4-(trifluoromethyl)cyclohexyl)oxy)methyl)pyrrolidine-1-carboxylate] stands 99%; under `COC(=O)N1[C@H](C)C[C@H](NS(C)(=O)=O)[C@@H]1COC1CCC(CC(F)(F)F)CC1` (stereo partly drawn) [Example 12, methyl (2R,3S,5R)-5-methyl-3-(methylsulfonamido)-2-(((4-(2,2,2-trifluoroethyl)cyclohexyl)oxy)methyl)pyrrolidine-1-carboxylate], 99%. In the case of `CNS(=O)(=O)N[C@H]1C[C@@H](C)N(C(=O)OCC(F)F)[C@H]1COC1CCC(C(C)C)CC1` (stereo partly drawn) [Example 13, 2,2-difluoroethyl (2R,3S,5R)-2-(((4-isopropylcyclohexyl)oxy)meth-yl)-5-methyl-3-((N-methylsulfamoyl)amino)pyrro-lidine-1-carboxylate], the “Emax (%)” value was found to be 101%.

Compound `CC(C)C1CCC(OC[C@H]2[C@@H](NS(=O)(=O)N(C)C)C[C@@H](C)N2C(=O)OCC(F)F)CC1` (stereo partly drawn) [Example 14, 2,2-difluoroethyl (2R,3S,5R)-3-((N,N-dimethylsulfamoyl)amino)-2-(((4-isopropylcyclohexyl)oxy)meth-yl)-5-methylpyrrolidine-1-carboxylate] showed an Emax of 100%. Regarding `COC(=O)N1[C@H](C)C[C@H](NS(C)(=O)=O)[C@@H]1CO[C@H]1CC[C@@H](c2ccccc2)CC1` [Example 15, methyl (2R,3S,5R)-5-methyl-3-(methylsulfonamido)-2-((((1s,4S)-4-phenylcyclohexyl)oxy)-methyl)pyrrolidine-1-carboxylate], the “Emax (%)” value was 101%.

In the case of `CNS(=O)(=O)N[C@H]1C[C@@H](C)N(C(=O)OCC(F)F)[C@H]1CO[C@H]1CC[C@@H](c2ccccc2)CC1` [Example 16, 2,2-difluoroethyl (2R,3S,5R)-5-methyl-3-((N-methylsulfamoyl)amino)-2-((((1s,4S)-4-phenylcyclohexyl)oxy)methyl)pyrrolidine-1-carboxylate], the “Emax (%)” value stood at 101%.

As to `C[C@@H]1C[C@H](NS(=O)(=O)N(C)C)[C@H](CO[C@H]2CC[C@@H](c3ccccc3)CC2)N1C(=O)OCC(F)F` [Example 17, 2,2-difluoroethyl (2R,3S,5R)-3-((N,N-dimethylsulfamoyl)amino)-5-methyl-2-((((1s,4S)-4-phenylcyclohexyl)oxy)methyl)pyrrolidine-1-carboxylate], the “Emax (%)” value came to 102%. Turning to `COC(=O)N1[C@H](C)C[C@H](NS(=O)(=O)N(C)C)[C@@H]1CO[C@H]1CC[C@@H](c2ccccc2)CC1` [Example 19, methyl (2R,3S,5R)-3-((N,N-dimethylsulfamoyl)amino)-5-methyl-2-((((1s,4S)-4-phenylcyclohexyl)-oxy)methyl)pyrrolidine-1-carboxylate], the “Emax (%)” value is recorded as 100%. Compound `COC(=O)N1[C@H](C)C[C@H](NS(C)(=O)=O)[C@@H]1CO[C@H]1CC[C@@H](c2cc(F)ccc2F)CC1` [Example 20, methyl (2R,3S,5R)-2-((((1r,4R)-4-(2,5-difluorophenyl)cyclo-hexyl)oxy)methyl)-5-methyl-3-(methylsulfona-mido)pyrrolidine-1-carboxylate] showed an Emax of 102%. Same read-out and setting: under `COC(=O)N1[C@H](C)C[C@H](NS(=O)(=O)N(C)C)[C@@H]1CO[C@H]1CC[C@@H](c2cc(F)ccc2F)CC1` [Example 21, methyl (2R,3S,5R)-2-((((1R,4R)-4-(2,5-difluorophenyl)cyclohexyl)oxy)methyl)-3-((N,N-dimethylsulfa-moyl)amino)-5-methylpyrrolidine-1-carboxylate] stands 101%; under `C[C@@H]1C[C@H](NS(=O)(=O)N(C)C)[C@H](CO[C@H]2CC[C@@H](c3cc(F)ccc3F)CC2)N1C(=O)OCC(F)F` [Example 22, 2,2-difluoroethyl (2R,3S,5R)-2-((((1r,4R)-4-(2,5-difluorophenyl)-cyclohexyl)oxy)methyl)-3-((N,N-dimethylsulfamoyl)amino)-5-methylpyrrolidine-1-carboxylate], 100%; under `COC(=O)N1[C@H](C)C[C@H](NS(=O)(=O)N(C)C)[C@@H]1CO[C@H]1CC[C@@H](c2ccccc2F)CC1` [Example 23, methyl (2R,3S,5R)-3-((N,N-dimethylsulfamoyl)amino)-2-((((1s,4S)-4-(2-fluorophenyl)cyclohexyl)oxy)methyl-5-methylpyrrolidine-1-carboxylate], 97%.

Turning to `COC(=O)N1[C@H](C)C[C@H](NS(=O)(=O)CF)[C@@H]1CO[C@H]1CC[C@@H](c2cccc(F)c2)CC1` [Example 26, methyl (2R,3S,5R)-3-((fluoromethyl)sulfonamido)-2-((((1s,4S)-4-(3-fluorophenyl)cyclohexyl)oxy)methyl)-5-methylpyrrolidine-1-carboxylate], the Emax is 98% and the “Emax (%)” value worked out at 102%.
